The record followed here is patent publication US10596166B2, “Combination composition comprising huperzine” (priority 2015, dated 2020).

The subject of experiment [1] is primary cortical neurons injured by Aβ. Briefly: Aβ-peptide toxicity on primary cortical neurons (neuron survival, neurite network). The note with it: Aβ 20 μM, 24 h. The format is cell-based, rat. The method, then:
The present study used an in vitro model of Alzheimer's disease established by Callizot et al. [2013, already cited], using Aβ-peptide solution containing Aβ-oligomers and permitting to reproduce essential neuropathological features of Alzheimer's disease.
The Aβ1-42-preparation was obtained following the procedure described by Callizot et al. [2013, already cited]. Briefly, Aβ1-42 peptide was dissolved in the defined culture medium mentioned above, devoid of serum, at an initial concentration of 40 μmol/liter. This solution was gently agitated for 3 days at 37° C. in the dark and immediately used after being diluted in culture medium to the concentrations used.
On day 11 of culture, HA, CA, FA and mixtures thereof were solved and diluted in culture medium and then pre-incubated with cortical neurons 1 hour before the Aβ1-42-peptide application. Aβ1-42-preparation was then added to a final concentration of 20 μM diluted in control medium.
After 24 hours of Aβ-intoxication, the cultures were fixed and immunolabeled and the neuron survival and the neurite network length were assessed as described in the above example.

The subject of experiment [2] is TH positive dopaminergic neurons injured with MPP+. Briefly: MPP+ toxicity on TH positive dopaminergic neurons of primary mesencephalic culture. The format is cell-based, rat. The note with it: MPP+ 4 μM, 48 h. The method, then: Rat dopaminergic neurons were cultured as described by Schinelli et al., J Neurochem. 1988 June; 50(6):1900-7 and Visanji et al., 2008 [previously cited].
Briefly, the midbrains obtained from 15-days old rat embryos (Janvier Labs, France) were dissected under a microscope. The embryonic midbrains were removed and placed in ice-cold medium of Leibovitz (L15, Pan Biotech) containing 2% of Penicillin-Streptomycin (PS, Pan Biotech) and 1% of bovine serum albumin (BSA, Pan Biotech). The ventral portion of the mesencephalic flexure, a region of the developing brain rich in dopaminergic neurons, was used for the cell preparations.
The midbrains were dissociated by trypsinisation for 20 min at 37° C. (Trypsin 0.05% EDTA 0.02%, PanBiotech). The reaction was stopped by the addition of Dulbecco's modified Eagle's medium (DMEM, PanBiotech) containing DNAase I grade II (0.1 mg/ml, PanBiotech) and 10% of foetal calf serum (FCS, Gibco). Cells were then mechanically dissociated by 3 passages through a 10 ml pipette. Cells were then centrifuged at 180×g for 10 min at +4° C. on a layer of BSA (3.5%) in L15 medium. The supernatant was discarded and the cell pellets were re-suspended in a defined culture medium consisting of Neurobasal (Invitrogen) supplemented with B27 (2%, Invitrogen, Batch: 1589889), L-glutamine (2 mM, PanBiotech) and 2% of PS solution and 10 ng/ml of Brain-derived neurotrophic factor (BDNF, PanBiotech) and 1 ng/ml of Glial-Derived Neurotrophic Factor (GDNF, PanBiotech). Viable cells were counted in a Neubauer cytometer using the trypan blue exclusion test. The cells were seeded at a density of 40 000 cells/well in 96 well-plates pre-coated with poly-L-lysine (Corning Biocoat) and maintained in a humidified incubator at 37° C. in 5% CO2/95% air atmosphere. Half of the medium was changed every 2 days with fresh medium.
On day 6 of culture, the medium was removed and fresh medium was added, without or with MPP^+ (Sigma) at 4 μM diluted in control medium, 6 wells per condition were assessed.
On day 6 of culture, NSP01-001-E001 (2.5, 5, 50, 500 ng/ml, 2.5, 5, 25, 33.3 μg/ml) were solved or diluted in culture medium and then pre-incubated with primary mesencephalic neurons for 1 hour before the MPP^+ application. MPP^+ solution was added to a final concentration of 4 μM diluted in control medium.
After 48 hours intoxication, the cells were then fixed by a solution of 4% paraformaldehyde (PFA, Sigma) in PBS (PAN), pH=7.3 for 20 min at room temperature. The cells were washed again twice in PBS, and then were permeabilized and non-specific sites were blocked with a solution of PBS containing 0.1% of saponin (Sigma) and 1% FCS for 15 min at room temperature. Then, cells were incubated with Monoclonal Anti-Tyrosine Hydroxylase (TH, Sigma) antibody produced in mouse at dilution of 1/10000 in PBS containing 1% FCS, 0.1% saponin, for 2 h at room temperature.
The immunolabeled cultures were automatically examined with ImageXpress (Molecular Devices) equipped with a LED at ×10 magnification. For each condition (6 culture wells), 20 automatically fields per well (representing ˜80% of the total surface of the well) were analyzed. The total number of TH neurons was automatically analyzed using MetaXpress software (Molecular Devices). Data were expressed in percentage of control conditions (no intoxication, no MPP^+=100%) in order to express the MPP^+ injury. All values were expressed as mean±SEM (s.e. mean) of the 6 wells. Graphs and statistical analyses were performed on the different conditions (ANOVA followed by Dunnett's or PLSD Fisher's test when allowed, using GraphPad Prism software).
The protocol used in these assays is the same as described in example 4.
HA (1, 10, 100 nM, 1, 10, 100 μM), CA (5, 50, 500 pM, 5, 50, 500 nM, 1 μM), FA (100 pM, 1, 10, 100 nM, 1, 10, 100 μM and 1 mM) and mixtures thereof were solved or diluted in culture medium and then pre-incubated with primary mesencephalic neurons for 1 hour before the MPP^+ application. […]

Turning to `O=C(O)/C=C/c1ccc(O)c(O)c1` [CA, caffeic acid], the neuron survival entry in experiment [1] (500 pM and below) is recorded as “no effect”; in experiment [1] (from 5 nM up to 5 μM), “significantly protect”. The neurite network entry in experiment [1] (even at lower concentrations) is listed as “Protective effect”. Besides, in experiment [2] (5 nM up to 1 μM), the “TH positive neuron survival” value is “large and significant protective effect”.
For `COc1cc(/C=C/C(=O)O)ccc1O` [FA, ferulic acid], in experiment [1] (10 and 100 μM), the neurite network entry is given as “significant effect”. For the same compound, the neuron survival result in experiment [1] (whatever the concentration tested) is reported as “not able to protect”. The “concentration of maximal effect (bell shape curve)” value in experiment [2] came to 10 µM. The figures for the “TH positive neuron survival” value in experiment [2] (100 pM up to 100 nM) and in experiment [2] (from 1 μM to 1 mM) were “inactive” and “significant protective effect”, respectively.
Turning to `C/C=C1\[C@H]2C=C(C)C[C@]1(N)c1ccc(=O)[nH]c1C2` [HA, huperzine A, reference compound], in experiment [1] (HA, all concentrations), the neuron survival entry is on record as “not able to significantly protect”. In addition, the “TH positive neuron survival” value is “inactive” in experiment [2] (1 nM); greater than 90% in experiment [2] (100 nM); “did not show some protective effect” in experiment [2] (100 μM (in some well toxicity occurred)); “large and significant protective effect” in experiment [2] (from 10 nM up to 10 μM).
